# Measurements reported in patent US10526318B2, “Oral cannabinoid receptor modulator formulations” (THE CLEVELAND CLINIC FOUNDATION, priority 2018, dated 2020).
# Key:
# [1] = Microcentrifuge dissolution test, second round of SDD testing; type: physicochemical; conditions: 400 μgA/mL in 0.5 wt % SIF in PBS, pH 6.5, 37° C.
# Description: In the second round of testing, experiments were carried out using crystalline API (active pharmaceutical ingredient; MDA7), 10% MDA7 in HPMCAS-M SDD, 25% MDA7 in HPMCAS-M SDD, 25% MDA7 in HPMCAS-L SDD, and 25% MDA7:PVP VA64 SDD. The test conditions were 400 μgA/mL in 0.5 wt % SIF in PBS, pH 6.5, 37° C.
# [2] = MDA7 GB/IB non-sink microcentrifuge dissolution test; type: physicochemical
# Description: In the first round of testing, experiments were carried out using crystalline API, 25% MDA7: HPMCAS-H, 25% MDA7: Eudragit L100, 25/65/10%:HPMCAS-M:TPGS, 25/65/10% MDA7:PVP VA64:TPGS, and 40% MDA7: HPMCAS-M. The results of these experiments are shown in FIG. 1, and Table 1 below.
# male beagle dogs = conditions: intravenous, 5 mg/mL in 20% HPβCD, Dog1001 and Dog1002
# Description: The mixture was vortexed then stirred at room temperature for 93 minutes forming a clear yellow solution at a concentration of 5 mg/mL for intravenous dosing. The intravenous dose solution was sterile-filtered using a Millex GV PVDF 0.22 μm filter (Millipore) prior to dosing.
# Using clean technique, an aliquot of the 5 mg/mL Group 1 formulation (2.8 mL) was combined with 20% HPβCD (4.2 mL), and vortexed to form a clear yellow solution at a concentration of 2 mg/mL for intravenous dosing.
# A total of fifteen male beagle dogs (plus one spare animal) were selected from the Test Facility's colony of non-naïve animals. The animals were assigned to the study based on acceptable health as determined by a Test Facility veterinarian following a pre-study health status check. The pre-study health status check included a physical exam, serum chemistry and hematology evaluations. The animals were placed into five groups of three animals per group. All animals were fasted overnight prior to dose administration.
# Each animal in Group 1 received the prepared test article as a 30-60 second intravenous injection by way of a temporary percutaneous catheter placed in a peripheral vein. Immediately after each intravenous dose, the catheter was flushed with 3 mL of saline prior to removal. […]
# mice = conditions: cited from earlier work
Structure (SMILES),AUC90 [1],C90 [1] [µg/mL],C1200 [1] [µg/mL],Cmax90 [1] [ng/mL],Ultra90 [1] [µg/mL],Ultra1200 [1] [µg/mL],AUC90 [2],C90 [2] [µg/mL],C1200 [2] [µg/mL],Cmax90 [2] [ng/mL],Ultra90 [2] [µg/mL],Ultra1200 [2] [µg/mL],clinical effects observed following dosing (male beagle dogs),effect on food intake (mice)
"CC1(Cc2ccccc2)COc2cc(C(=O)N3CCCCC3)ccc21 (centres unmarked) [Crystalline API, 3-benzyl-3-methyl-2,3-dihydrobenzofuran-6-carboxylic acid-piperidine amide]","2,010 min*μg/mL",24,28,27000,20,24,"2,360 min*μg/mL",31,31,31000,31,31,adverse clinical effects,
Cc1c(C(=O)NN2CCCCC2)nn(-c2ccc(Cl)cc2Cl)c1-c1ccc(Cl)cc1 [SR141716A],,,,,,,,,,,,,,reduces food intake
